Measurements as given in US20190194148A1, “TETRAZOLE-CONTAINING 1,2-CYCLOPROPANE-CARBOXAMIDES” (Bayer Pharma Aktiengesellschaft, priority 2017, published 2019).

Target: T1, human B1 receptor (Homo sapiens, UniProt P46663)
T1 construct: host or cells: CHO-K1
T1 sequence (P46663 1-353): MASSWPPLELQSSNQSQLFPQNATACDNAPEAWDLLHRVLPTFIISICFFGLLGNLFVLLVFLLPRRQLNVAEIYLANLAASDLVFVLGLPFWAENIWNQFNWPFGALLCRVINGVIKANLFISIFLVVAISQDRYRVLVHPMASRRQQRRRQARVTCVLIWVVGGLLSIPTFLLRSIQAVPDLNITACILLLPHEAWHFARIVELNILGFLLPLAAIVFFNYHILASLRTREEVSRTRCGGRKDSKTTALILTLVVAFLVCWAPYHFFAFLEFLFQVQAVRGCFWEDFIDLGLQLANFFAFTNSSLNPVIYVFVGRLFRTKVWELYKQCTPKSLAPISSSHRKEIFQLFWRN
Experiment: Calcium flux assay (FLIPR) with recombinant CHO-K1 cells expressing human B1 receptor
Format: cell-based
Settings: absence of 0.1% BSA in assay buffer, read-out: hB1 free IC50
Description: The potency to inhibit the Bradykinin B1 receptors was determined for the example compounds of this invention in a cell-based fluorescent calcium-mobilisation assay. The assay measures the ability of example compounds to inhibit Bradykinin B1 receptor agonist-induced increase of intracellular free Ca^2+ in the cell line expressing B1 receptor. Specifically, calcium indicator-loaded cells are pre-incubated in the absence or presence of different concentrations of example compounds followed by the stimulation with a selective B1 receptor agonist peptide. The change of the intracellular Ca^2+ concentration is monitored with a fluorescent plate reader FLIPR (Molecular Devices).
Calcium Flux Assays (FLIPR) with Cells Expressing Bradykinin B1 Receptor Calcium Flux Assay (FLIPR) with Recombinant Cells for Bradykinin B1 Receptor Antagonist, Either in the Presence (hB1 IC50) or Absence (hB1 free IC50) of 0.1% Bovine Serum Albumin (BSA) in Assay Buffer
CHO-K1 cell line expressing human B1 receptor was purchased from Euroscreen (Gosselies, Belgium, with reference name hB1-D1). The cells were grown in Nutrient Mixture Ham's F12 (Sigma) containing 10% Foetal bovine serum (Sigma) and 400 μg/mL G418 (Sigma), 5 μg/mL puromycin (Sigma).
For the calcium flux assay, 80% confluent cells were detached from the culture vessels with Versene (Gibco), and seeded into 384-well plates (Cell binding Surface; Corning, N.Y.; #3683) at a density of 15,000 cells per well. Cells were seeded in a volume of 50 μL in medium without antibiotics and incubated overnight in a humidified atmosphere with 5% CO2 at 37° C. […] The calcium indicator loaded cells were incubated at 37° C. for 2 hrs. Extracellular dye was then removed and each well was filled with 45 μL of assay buffer. Cell plates were kept in dark until used. Example compounds were assayed at 8 concentrations in triplicate. Serial 10-fold dilutions in 100% DMSO were made at a 100-times higher concentration than the final concentration, and then diluted 1:10 in assay buffer. 5 μL of each diluted compound was added to the well of cell plates (yielding final concentration with 1% DMSO), and incubated for 30 min at 28° C. before the addition of B1 receptor agonist on the FLIPR instrument.
Agonist plates contained the agonist Lys-(Des-Arg)-Bradykinin (Bachem, Brackley) at 3.5×EC90 in assay buffer with 1% DMSO. The addition of agonist 20 μl per well to the assay plate was carried out on the FLIPR instrument while continuously monitoring Ca^2+-dependent fluorescence at 538 nm. A peptide antagonist Lys-(Des-Arg-Leu)-Bradykinin (Bachem, Brackley) at 20 μM was used to determine the full inhibition as control.
Peak fluorescence was used to determine the response to agonist obtained at each concentration of example compound by the following equation:
% Response=100*(RFU(example compound)−RFU(control)/(RFU(DMSO)−RFU(control)
Control=full inhibition by the peptide antagonist Lys-(Des-Arg-Leu)-Bradykinin at 20 μM
The response values were plotted against the logarithm of the compound concentrations. The compounds were tested in triplicates per plate and mean values were plotted in Excel XLfit to determine IC50 values, percentage of maximal inhibition and the Hill slopes.

SMILES	IC50
CC(C)(C)c1cnn(-c2ccc(NC(=O)C3CC3c3ccc(Cl)cc3)cc2-c2nnn[nH]2)c1 (racemic) [Example 44, N-[4-(4-tert-butyl-1H-pyrazol-1-yl)-3-(1H-tetrazol-5-yl)phenyl]-2-(4-chlorophenyl)cyclopro-panecarboxamide]	0.026 µM
CC1(C(=O)Nc2ccc(-c3ccc(C(F)(F)F)nc3)c(-c3nnn[nH]3)c2)CC1c1ccccc1 (racemic) [Example 29, 1-Methyl-2-phenyl-N-{3-(1H-tetrazol-5-yl)-4-[6-(trifluoromethyl)pyridin-3-yl]phenyl}cyclopro-panecarboxamide]	0.526 µM
COc1ccc(-c2ccc(NC(=O)C3CC3c3ccccc3OC(F)(F)F)cc2-c2nnn[nH]2)cc1OC (racemic) [Example 6, N-[3′,4′-dimethoxy-2-(1H-tetrazol-5-yl)biphenyl-4-yl]-2-[2-(trifluoromethoxy)phen-yl]cyclopropane-carboxamide]	0.006 µM
O=C(Nc1ccc(-c2ccc(C(F)(F)F)nc2)c(-c2nnn[nH]2)c1)C1CC1C1CCCCC1 (racemic) [Example 30, 2-Cyclohexyl-N-{3-(1H-tetrazol-5-yl)-4-[6-(trifluoromethyl)pyridin-3-yl]phenyl}cyclopro-panecarboxamide]	0.514 µM
COc1ccc(-c2ccc(NC(=O)C3CC3c3cccc(C)c3)cc2-c2nnn[nH]2)cc1OC (racemic) [Example 7, N-[3′,4′-dimethoxy-2-(1H-tetrazol-5-yl)biphenyl-4-yl]-2-(3-methylphenyl)cyclopro-panecarboxamide]	0.006 µM

Results, then the compound that gave them:

IC50	SMILES
0.004 µM	CC(C)(C)c1cn(-c2ccc(NC(=O)C3CC3c3ccc(Cl)cc3)cc2-c2nnn[nH]2)cn1 (single isomer, unassigned) [Example 84, N-[4-(4-tert-butyl-1H-imidazol-1-yl)-3-(1H-tetrazol-5-yl)phenyl]-2-(4-chlorophenyl)cyclopropanecarboxamide]
0.458 µM	CC[C@@H]1CCN(c2ccc(NC(=O)C3CC3c3ccc(Cl)cc3)cc2-c2nnn[nH]2)C1=O (stereo partly drawn) [Example 75, 2-(4-Chlorophenyl)-N-{4-[(3R)-3-ethyl-2-oxopyrrolidin-1-yl]-3-(1H-tetrazol-5-yl)phenyl}cyclopropane-carboxamide]
0.308 µM	Cc1cc(-c2ccc(C(F)(F)F)nc2)c(-c2nnn[nH]2)cc1NC(=O)C1CC1C1CCCCC1 (racemic) [Example 71, 2-Cyclohexyl-N-{2-methyl-5-(1H-tetrazol-5-yl)-4-[6-(trifluoromethyl)pyridin-3-yl]phenyl}cyclopro-panecarboxamide]
0.947 µM	O=C(Nc1cc(F)c(-c2ccc(C(F)(F)F)nc2)c(-c2nnn[nH]2)c1)C1CC1c1ccc(Cl)cc1 (racemic) [Example 62, 2-(4-chlorophenyl)-N-{3-fluoro-5-(1H-tetrazol-5-yl)-4-[6-(trifluoromethyl)pyridin-3-yl]phenyl}cyclopro-panecarboxamide]
0.463 µM	CC(C)(C)c1ccn(-c2ccc(NC(=O)C3CC3c3ccc(Cl)cc3)cc2-c2nnn[nH]2)n1 (racemic) [Example 45, N-[4-(3-tert-butyl-1H-pyrazol-1-yl)-3-(1H-tetrazol-5-yl)phenyl]-2-(4-chlorophenyl)cyclopro-panecarboxamide]

Same assay, conditions: presence of 0.1% BSA in assay buffer, read-out: hB1 IC50

SMILES	IC50
COc1cncc(-c2ccc(NC(=O)C3CC3c3ccc(Cl)cc3)cc2-c2nnn[nH]2)c1 (racemic) [Example 26, 2-(4-Chlorophenyl)-N-[4-(5-methoxypyridin-3-yl)-3-(1H-tetrazol-5-yl)phenyl]cyclopro-panecarboxamide]	0.372 µM
CCOc1cncc(-c2ccc(NC(=O)C3CC3c3cccc(C)c3)cc2-c2nnn[nH]2)c1 (racemic) [Example 23, N-[4-(5-Ethoxypyridin-3-yl)-3-(1H-tetrazol-5-yl)phenyl]-2-(3-methylphenyl)cyclopro-panecarboxamide]	0.303 µM
COc1ccc(-c2ccc(NC(=O)C3CC3c3ccccc3)cc2-c2nnn[nH]2)cc1OC (racemic) [Example 1, N[3′,4′-dimethoxy-2-(1H-tetrazol-5-yl)biphenyl-4-yl]-2-phenylcyclopropanecarboxamide]	0.209 µM
COc1ccc(-c2ccc(NC(=O)C3CC3C3CCCCC3)cc2-c2nnn[nH]2)cc1 (racemic) [Example 37, 2-cyclohexyl-N-[4′-methoxy-2-(1H-tetrazol-5-yl)biphenyl-4-yl]cyclopropanecarbox-amide]	0.469 µM
O=C(Nc1ccc(-c2ccc(OC(F)(F)F)cc2)c(-c2nnn[nH]2)c1)C1CC1c1ccc(Cl)cc1 (racemic) [Example 41, 2-(4-chlorophenyl)-N-[2-(1H-tetrazol-5-yl)-4′-(trifluoro-methoxy)biphenyl-4-yl]cyclopropanecarbox-amide]	0.033 µM
COc1ccc(-c2ccc(NC(=O)C3CC3c3ccccc3OC(F)(F)F)cc2-c2nnn[nH]2)cc1OC (racemic) [Example 6, N-[3′,4′-dimethoxy-2-(1H-tetrazol-5-yl)biphenyl-4-yl]-2-[2-(trifluoromethoxy)phen-yl]cyclopropane-carboxamide]	0.02 µM
CCc1ccc(C2CC2C(=O)Nc2ccc(-c3ccc(OC)c(OC)c3)c(-c3nnn[nH]3)c2)cc1 (racemic) [Example 12, N-[3′,4′-dimethoxy-2-(1H-tetrazol-5-yl)biphenyl-4-yl]-2-(4-ethylphenyl)cyclopro-panecarboxamide]	0.341 µM
O=C(Nc1ccc(-c2ccc(C(F)(F)F)nc2)c(-c2nnn[nH]2)c1)C1CC1C1CCCCC1 (racemic) [Example 30, 2-Cyclohexyl-N-{3-(1H-tetrazol-5-yl)-4-[6-(trifluoromethyl)pyridin-3-yl]phenyl}cyclopro-panecarboxamide]	3.3 µM
CCc1ccccc1C1CC1C(=O)Nc1ccc(-c2ccc(OC)c(OC)c2)c(-c2nnn[nH]2)c1 (racemic) [Example 5, N-[3′,4′-dimethoxy-2-(1H-tetrazol-5-yl)biphenyl-4-yl]-2-(2-ethylphenyl)cyclopro-panecarboxamide]	0.016 µM
COc1ccc(-c2ccc(NC(=O)C3CC3c3cccc(C)c3)cc2-c2nnn[nH]2)cc1OC (racemic) [Example 7, N-[3′,4′-dimethoxy-2-(1H-tetrazol-5-yl)biphenyl-4-yl]-2-(3-methylphenyl)cyclopro-panecarboxamide]	0.019 µM

Other lines, results leading:

IC50	SMILES
0.43 µM	COc1ccc(-c2cc(C)c(NC(=O)C3CC3C3CCCCC3)cc2-c2nnn[nH]2)cc1OC (racemic) [Example 67, 2-Cyclohexyl-N-[3′,4′ dimethoxy-5-methyl-2-(1H-tetrazol-5-yl)biphenyl-4-yl]cyclopro-panecarboxamide]
0.336 µM	COc1cncc(-c2cc(C)c(NC(=O)C3CC3c3cccc(C)c3)cc2-c2nnn[nH]2)c1 (racemic) [Example 68, N-[4-(5-Methoxypyridin-3-yl)-2-methyl-5-(1H-tetrazol-5-yl)phenyl]-2-(3-methylphenyl)cyclo-propanecarboxamide]
0.083 µM	COc1ccc(-c2c(F)cc(NC(=O)C3CC3c3cccc(C)c3)cc2-c2nnn[nH]2)cc1OC (racemic) [Example 59, N-[2-Fluoro-3′,4′-dimethoxy-6-(1H-tetrazol-5-yl)biphenyl-4-yl]-2-(3-methylphenyl)cyclopro-panecarboxamide]
0.447 µM	COc1cncc(-c2cc(C)c(NC(=O)C3CC3C3CCCCC3)cc2-c2nnn[nH]2)c1 (racemic) [Example 69, 2-Cyclohexyl-N-[4-(5-methoxypyridin-3-yl)-2-methyl-5-(1H-tetrazol-5-yl)phenyl]cyclopropane-carboxamide]
0.026 µM	COc1ccc(-c2cc(F)c(NC(=O)C3CC3c3ccc(Cl)cc3)cc2-c2nnn[nH]2)cc1OC (racemic) [Example 54, 2-(4-Chlorophenyl)-N-[5-fluoro-3′,4′-dimethoxy-2-(1H-tetrazol-5-yl)biphenyl-4-yl]cyclopro-panecarboxamide]
0.263 µM	Cc1cc(-c2ccc(C(F)(F)F)nc2)c(-c2nnn[nH]2)cc1NC(=O)C1CC1C1CCCCC1 (racemic) [Example 71, 2-Cyclohexyl-N-{2-methyl-5-(1H-tetrazol-5-yl)-4-[6-(trifluoromethyl)pyridin-3-yl]phenyl}cyclopro-panecarboxamide]
0.247 µM	CCOc1ccc(-c2cc(C)c(NC(=O)C3CC3C3CCCCC3)cc2-c2nnn[nH]2)cn1 (racemic) [Example 65, 2-Cyclohexyl-N-[4-(6-ethoxypyridin-3-yl)-2-methyl-5-(1H-tetrazol-5-yl)phenyl]cyclopropane-carboxamide]
0.134 µM	COc1ccc(-c2cc(F)c(NC(=O)C3CC3c3ccc(Cl)cc3)cc2-c2nnn[nH]2)cc1 (racemic) [Example 58, 2-(4-Chlorophenyl)-N-[5-fluoro-4′-methoxy-2-(1H-tetrazol-5-yl)biphenyl-4-yl]cyclopropanecarbox-amide]
